This experiment relates to T1, BZDH (benzaldehyde dehydrogenase, xylC).
T1 construct: xylC ORF of 792 bp, 264 aa, ~27 kDa, homologous to the C-terminal half of other aldehyde dehydrogenases; DEAE ion exchange; forward primer […]; (encodes MSPSPVPPR), reverse primer […]; (C-terminus ...DVPGYPF)
Put plainly: NADH formation at […] nm, Lineweaver-Burk. It is filed as biochemical, Rhodococcus ruber. As to conditions: co-substrate NAD (standard assay 5 mM, 50 mM glycine-NaOH); 25 °C; benzaldehyde 0.005-4 mM; pH of kinetic run not stated.

Each structure is given as a SMILES string.

This is an account of results in PMC5582255, “Partial Purification and Characterization of the Recombinant Benzaldehyde Dehydrogenase from Rhodococcus ruber UKMP-5M” (Iranian Journal of Biotechnology, 2017).

Take `O=Cc1ccccc1` [benzaldehyde]: the Km (in general, the substrate concentration at which the rate is half of its maximum) stood at 4.2 mM.
